# Test results: paper PMC3063124 (The Journal of neuroscience : the official journal of the …, 2011)
# Target: GluN1/GluN2D (Rattus norvegicus, UniProt Q62645)
# Assay type: cell-based
# Settings: absence of QNZ46; continuous presence of glycine
# Chain of GluN1/GluN2D (Q62645 28-1323, other chains not shown): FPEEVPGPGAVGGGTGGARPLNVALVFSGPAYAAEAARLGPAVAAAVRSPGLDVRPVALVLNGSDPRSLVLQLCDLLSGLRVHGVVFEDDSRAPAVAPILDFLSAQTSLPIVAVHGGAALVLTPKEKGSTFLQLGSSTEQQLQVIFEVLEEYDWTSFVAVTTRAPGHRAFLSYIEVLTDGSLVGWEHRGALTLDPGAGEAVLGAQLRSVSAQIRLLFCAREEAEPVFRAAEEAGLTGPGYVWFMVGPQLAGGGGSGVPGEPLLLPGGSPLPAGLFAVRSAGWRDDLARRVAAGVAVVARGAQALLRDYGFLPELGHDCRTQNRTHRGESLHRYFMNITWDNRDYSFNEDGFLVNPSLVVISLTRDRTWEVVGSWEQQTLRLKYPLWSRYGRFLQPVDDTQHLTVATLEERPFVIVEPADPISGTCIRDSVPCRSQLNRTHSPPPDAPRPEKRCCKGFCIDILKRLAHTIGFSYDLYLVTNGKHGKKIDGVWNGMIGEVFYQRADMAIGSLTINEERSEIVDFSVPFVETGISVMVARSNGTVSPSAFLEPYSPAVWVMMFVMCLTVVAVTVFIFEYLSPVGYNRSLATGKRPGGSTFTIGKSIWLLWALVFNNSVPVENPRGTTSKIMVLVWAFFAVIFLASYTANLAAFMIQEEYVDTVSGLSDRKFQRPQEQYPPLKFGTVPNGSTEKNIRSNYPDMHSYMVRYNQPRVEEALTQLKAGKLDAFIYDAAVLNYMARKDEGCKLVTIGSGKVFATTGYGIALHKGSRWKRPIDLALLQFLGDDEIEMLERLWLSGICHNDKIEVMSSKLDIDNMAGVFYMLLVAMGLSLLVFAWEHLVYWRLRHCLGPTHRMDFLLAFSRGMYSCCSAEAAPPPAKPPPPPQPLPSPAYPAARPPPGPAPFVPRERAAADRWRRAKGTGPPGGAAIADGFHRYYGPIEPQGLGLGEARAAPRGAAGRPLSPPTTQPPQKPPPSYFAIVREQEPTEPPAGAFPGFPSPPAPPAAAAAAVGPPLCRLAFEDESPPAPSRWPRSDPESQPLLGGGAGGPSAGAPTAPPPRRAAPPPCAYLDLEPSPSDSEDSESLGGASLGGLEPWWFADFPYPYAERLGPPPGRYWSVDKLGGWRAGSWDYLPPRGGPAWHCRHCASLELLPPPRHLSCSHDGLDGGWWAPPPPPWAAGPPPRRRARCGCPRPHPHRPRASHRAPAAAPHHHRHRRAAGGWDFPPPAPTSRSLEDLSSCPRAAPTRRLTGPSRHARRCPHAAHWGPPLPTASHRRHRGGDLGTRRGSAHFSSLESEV
compound,measurement,value
"CN[C@H](CC(=O)O)C(=O)O [NMDA, N-methyl-D-aspartate, reference compound]",time constant for agonist deactivation (τweighted),92 ms
